# Measured values from US20080119513A1, “Sulfonamide Derivative Selectively Inhibiting Mmp-13” (priority 2004, published 2008).
# Columns and labels:
# Assay type in all cases: biochemical
# [1] = molecular target: T1, MMP-2 (Homo sapiens, UniProt P08253); test: Assay for inhibitory activities on MMPs (fluorogenic peptide substrate), MMP-2
# T1 sequence (P08253 110-660): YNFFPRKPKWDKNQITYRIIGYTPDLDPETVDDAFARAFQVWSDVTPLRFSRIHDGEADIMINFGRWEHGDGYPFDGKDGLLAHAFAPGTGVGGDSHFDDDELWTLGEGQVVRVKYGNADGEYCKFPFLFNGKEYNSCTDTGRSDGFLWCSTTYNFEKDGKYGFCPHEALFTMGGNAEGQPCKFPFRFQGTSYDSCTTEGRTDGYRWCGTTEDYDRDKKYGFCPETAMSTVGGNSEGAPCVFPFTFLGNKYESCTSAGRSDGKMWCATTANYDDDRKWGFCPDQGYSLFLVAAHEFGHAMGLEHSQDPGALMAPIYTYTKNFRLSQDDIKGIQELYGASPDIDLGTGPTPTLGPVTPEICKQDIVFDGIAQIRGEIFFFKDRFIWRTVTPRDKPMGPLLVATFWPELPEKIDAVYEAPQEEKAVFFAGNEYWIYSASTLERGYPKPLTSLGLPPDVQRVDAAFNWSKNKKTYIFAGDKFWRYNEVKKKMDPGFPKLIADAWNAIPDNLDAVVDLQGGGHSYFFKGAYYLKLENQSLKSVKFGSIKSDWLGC
# Procedure: MMP-2 was purchased from Calbiochem-Novabiochem International, Inc.
# (§1) The enzymatic activity on MMPs was analyzed by the method described in “C. Graham Knight, Frances Willenbrock and Gillian Murphy: A novel coumarin-labelled peptide for sensitive continuous assays of the matrix metalloproteinases: FEBS LETT., 296, (1992), 263-266”. The substrate: MOCAc-Pro-Leu-Gly-Leu-A2Pr(DNP)-Ala-Arg-NH2 was purchased from Peptide Institute, Inc., Osaka, Japan. The measurement of the inhibitory activities (IC50) was carried out by the following four methods;
# (§2) (A) Reaction with substrate, enzyme (MMPs) and inhibitor
# (§3) (B) Reaction with substrate and inhibitor, without enzyme
# (§4) (C) Reaction with substrate and enzyme (MMPs), without inhibitor
# (§5) (D) Reaction with substrate only
# (§6) IC50 values were calculated by using the following formula and each fluorescence values of above four methods (A to D).
# (§7) % inhibition={1-(A−B)/(C−D)}×100
# (§8) IC50 means the concentration required to inhibit 50% of the enzyme activity.
# (§9) The value of inhibitory activity against MMP-2, MMP-8, MMP-9, MMP-12, and MMP-13 measured by above mentioned methods are shown in Table 25 and 26.
# [2] = molecular target: T2, MMP-12 (Homo sapiens, UniProt P39900); test: Assay for inhibitory activities on MMPs (fluorogenic peptide substrate), MMP-12
# T2 construct: In regard to MMP-12, catalytic domain (^100Phe˜^263Gly) was amplified with RT-PCR; His-tag; enterokinase digestion-site
# T2 sequence (P39900 100-263): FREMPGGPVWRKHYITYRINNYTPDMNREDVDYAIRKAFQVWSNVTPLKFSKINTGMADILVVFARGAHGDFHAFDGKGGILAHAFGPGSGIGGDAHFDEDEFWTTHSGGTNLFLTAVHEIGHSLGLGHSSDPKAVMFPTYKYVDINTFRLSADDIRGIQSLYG
# Procedure: In regard to MMP-12, catalytic domain (^100Phe˜^263Gly) was amplified with RT-PCR from Human Placenta Total RNA. This was cloned in Escherichia coli expression vector pTrc99AHE inserted with His-tag sequence and enterokinase digestion-site, induced and expressed by IPTG (Isopropyl-β-D-thiogalactopyranoside) and expressed in an insoluble fraction. Isolation of MMP-12 from an insoluble fraction was carried out by dissolving in modifier (6 M urea) by a usual method and purification with metal chelate chromatography (Ni Chelateing Sepharose). And then removing modifier (6 M urea) with dialysis and refolding of the enzyme spontaneously gave activated MMP-12.
# as §1, §2, §3, §4, §5, §6, §7, §8, §9
# [3] = molecular target: T3, MMP-8 (Homo sapiens, UniProt P22894); test: Assay for inhibitory activities on MMPs (fluorogenic peptide substrate), MMP-8
# T3 construct: In regard to MMP-8, catalytic domain (^99Phe˜^262Gly) was amplified with PCR; His-tag; enterokinase digestion-site
# T3 sequence (P22894 99-262): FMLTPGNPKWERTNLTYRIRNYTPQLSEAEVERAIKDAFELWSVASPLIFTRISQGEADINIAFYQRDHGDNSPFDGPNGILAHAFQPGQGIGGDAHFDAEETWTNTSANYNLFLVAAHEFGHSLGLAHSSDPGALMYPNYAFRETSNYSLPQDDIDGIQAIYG
# Description: In regard to MMP-8, catalytic domain (^99Phe˜^262Gly) was amplified with PCR using commercial available Human Bone Marrow cDNA. This was cloned in Escherichia coli expression vector pTrc99AHE inserted with His-tag sequence and enterokinase digestion-site, induced and expressed by IPTG (Isopropyl-β-D-thiogalactopyranoside) and expressed in a insoluble fraction (Than F. Ho, M. Walid Qoronfleh, Robert C. Wahl, Trica A. Pulvino, Karen J. Vavra, Joe Falvo, Tracey M. Banks, Patricia G. Brake and Richard B. Ciccarelli: Gene expression, purification and characterization of recombinant human neutrophil collagenase. Gene 146, (1994) 297-301. It was prepared by the method in a slight modification). Isolation of MMP-8 from an insoluble fraction was carried out by dissolving in modifier (6 M urea) by a usual method and purification with metal chelate chromatography. And then removing modifier (6 M urea) with dialysis and refolding of the enzyme spontaneously gave activated MMP-8.
# as §1, §2, §3, §4, §5, §6, §7, §8, §9
# [4] = molecular target: MMP-9 (Homo sapiens, UniProt P14780); test: Assay for inhibitory activities on MMPs (fluorogenic peptide substrate), MMP-9
# Sequence of MMP-9 (P14780 107-707): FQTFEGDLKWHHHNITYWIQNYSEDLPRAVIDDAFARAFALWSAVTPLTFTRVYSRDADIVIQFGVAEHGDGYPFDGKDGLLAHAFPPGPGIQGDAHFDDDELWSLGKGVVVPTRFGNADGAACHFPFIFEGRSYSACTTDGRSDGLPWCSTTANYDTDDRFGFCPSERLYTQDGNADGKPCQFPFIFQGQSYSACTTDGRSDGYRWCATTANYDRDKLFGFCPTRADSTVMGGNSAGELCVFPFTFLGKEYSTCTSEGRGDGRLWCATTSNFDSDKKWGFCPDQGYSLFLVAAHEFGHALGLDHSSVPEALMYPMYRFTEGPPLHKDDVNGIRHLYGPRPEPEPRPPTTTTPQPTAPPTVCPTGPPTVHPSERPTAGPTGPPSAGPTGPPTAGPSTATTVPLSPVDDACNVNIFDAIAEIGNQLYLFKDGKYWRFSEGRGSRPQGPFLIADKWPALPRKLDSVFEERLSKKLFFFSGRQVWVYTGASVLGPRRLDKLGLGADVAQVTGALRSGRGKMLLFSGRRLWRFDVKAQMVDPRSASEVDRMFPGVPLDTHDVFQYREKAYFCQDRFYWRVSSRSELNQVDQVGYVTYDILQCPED
# Description: MMP-9 was isolated and purified by the procedure of Y. Okada et al. (Yasunori Okada, Yukio Gonoji, Katsumi Naka, Katsuro Tomita, Isao Nakanishi, Kazushi Iwata, Kyoko Yamashita, and Taro Hayakawa: Matrix metalloproteinase 9 (92-kDa gelatinase/type IV collagenase) from HT1080 human fibrosarcoma cells. Purification and activation of the precursor and enzymic properties, J. Biol. Chem., 1992, 267, 21712-21719) in combination with other following methods: 1) Yasunori Okada, Tatsuhisa Morodomi, Jan J, Enghild, Ko Suzuki, Atsushi Yasui, Isao Nakanishi, Guy Salvesen and Hideaki Nagase: Matrix metalloproteinase 2 from human rheumatoid synovial fibroblasts. Purification and activation of the precursor and enzymic properties, Eur. J. Biochem., 1990, 194, 721-730; 2) Robin V Ward, Rosalind M Hembry, John J Reynolds and Gillian Murphy: The purification of tissue inhibitor of metalloproteinase-2 from its 72 kDa progelatinase complex. Biochem. J., 1991, 278, 179-187. In detail, human fibrosarcoma ATCC HT1080 cell line was cultured to confluent in Dulbecco's Modified Medium (DMEM) containing 10% fetal-calf serum at 37° C. for 48 hours. Subsequently, the medium of confluent culture was changed to serum-free DMEM medium. To obtain MMP-9, phorbol-12-myristate-13-acetate (TPA) must be added to this serum-free DMEM medium at a concentration of 50 ng/ml. The TPA-treated medium was centrifuged at 3000 rpm for 15 min, and the supernatant was concentrated to 450 ml by a Toyo-Roshi UP-20 apparatus with an ultrafiltration membrane. Then, proMMP-9 in this concentrated solution was purified by using columns of Gelatin-Sepharose and Concanavalin A-Sepharose. The pool containing proMMP-9 was dialyzed, concentrated (Toyo-Roshi UP-20) and applied to columns of Sephacryl S-200 and Green A matrix for the separation from TIMPs. The obtained proMMP-9 fraction was activated by TPCK-Trypsin (Final conc.: 3 μg/501 React Mix.).
# as §1, §2, §3, §4, §5, §6, §7, §8, §9
# [5] = molecular target: T4, MMP-13 (Homo sapiens, UniProt P45452); test: Assay for inhibitory activities on MMPs (fluorogenic peptide substrate), MMP-13
# T4 construct: catalytic domain (^104Tyr˜^267Gly) was amplified with RT-PCR; His-tag; enterokinase digestion-site
# Procedure: In regard to MMP-13, mRNA was prepared from carcinoma cell SW1353 derived from human cartilage stimulate by IL-1 and TNF, and catalytic domain (^[…]) was amplified with RT-PCR. This was cloned in Escherichia coli expression vector […] inserted with His-tag sequence and enterokinase digestion-site, induced and expressed by IPTG (Isopropyl-β-D-thiogalactopyranoside) and expressed in an insoluble fraction. Isolation of MMP-13 from an insoluble fraction was carried out by dissolving in modifier (6 M urea) by a usual method and purification with metal chelate chromatography (Ni […] Sepharose). And then removing modifier (6 M urea) with dialyze and refolding of the enzyme spontaneously gave activated MMP-13. The enzymatic activity on MMPs was analyzed by the method described in “C. Graham Knight, Frances Willenbrock and Gillian Murphy: A novel coumarin-labelled peptide for sensitive continuous assays of the matrix metalloproteinases: FEBS LETT., 296, (1992), 263-266”. The substrate: MOCAc-[…] was purchased from Peptide Institute, Inc., Osaka, Japan. The measurement of the inhibitory activities (IC50) was carried out by the following four methods; (A) Reaction with substrate, enzyme (MMPs) and inhibitor (B) Reaction with substrate and inhibitor, without enzyme (C) Reaction with substrate and enzyme (MMPs), without inhibitor (D) Reaction with substrate only IC50 values were calculated by using the following formula and each fluorescence values of above four methods (A to D). % inhibition={1-(A-B)/(C-D)}×100 IC50 means the concentration required to inhibit 50% of the enzyme activity. The value of inhibitory activity against MMP-2, MMP-8, MMP-9, MMP-12, and MMP-13 measured by above mentioned methods are shown in Table 25 and 26.
Structure (SMILES),IC50 [1],IC50 [2],IC50 [3],IC50 [4],IC50 [5]
O=C(/C=C/c1ccccc1)Nc1ccc(-c2ccc(S(=O)(=O)N[C@H](Cc3ccccc3)C(=O)O)cc2)cc1 [VI-9],178 nM,> 10000 nM,> 10000 nM,> 10000 nM,44.6 nM
CSCC[C@H](NS(=O)(=O)c1ccc(-c2ccc(NC(=O)c3ccc4ccccc4c3)cc2)cc1)C(=O)O [VI-44],502 nM,162 nM,252 nM,> 10000 nM,48.4 nM
O=C(Nc1ccc(-c2ccc(S(=O)(=O)N[C@H](Cc3ccccc3)C(=O)O)cc2)cc1)c1cccs1 [VI-7],156 nM,611 nM,2350 nM,4340 nM,33.3 nM
CCC(C)[C@H](NS(=O)(=O)c1ccc(-c2ccc(NC(=O)c3ccc4ccccc4c3)cc2)cc1)C(=O)O (stereo partly drawn) [VI-43],243 nM,66.9 nM,63.2 nM,> 10000 nM,13.7 nM
COc1ccc2cc(C(=O)Nc3ccc(-c4ccc(S(=O)(=O)N[C@H](Cc5ccccc5)C(=O)O)cc4)cc3)ccc2c1 [VI-45],> 10000 nM,> 10000 nM,> 10000 nM,> 10000 nM,61.3 nM
C[C@@H](NS(=O)(=O)c1ccc(-c2ccc(NC(=O)c3ccc4ccccc4c3)cc2)cc1)C(=O)O [VI-37],726 nM,> 10000 nM,> 10000 nM,> 10000 nM,38.1 nM
O=C(Nc1ccc(-c2ccc(S(=O)(=O)N[C@H](Cc3ccccc3)C(=O)O)cc2)cc1)c1ccc2c(c1)OCO2 [VI-12],197 nM,334 nM,1740 nM,> 10000 nM,31.1 nM
COc1ccc(C(=O)Nc2ccc(-c3ccc(S(=O)(=O)N[C@H](C)C(=O)O)cc3)cc2)cc1OC [VI-24],839 nM,443 nM,1520 nM,> 10000 nM,50.1 nM
COc1ccc(C(=O)Nc2ccc(-c3ccc(S(=O)(=O)N[C@H](Cc4ccccc4)C(=O)O)cc3)cc2)cc1OC [VI-8],1050 nM,839 nM,723 nM,> 10000 nM,27.2 nM

# More lines, now with the values ahead:
IC50 [1],IC50 [2],IC50 [3],IC50 [4],IC50 [5],Structure (SMILES)
> 10000 nM,> 10000 nM,> 10000 nM,> 10000 nM,19.9 nM,COc1ccc2cc(C#Cc3ccc(-c4ccc(S(=O)(=O)N[C@@H](C)C(=O)O)cc4)cc3)ccc2c1 [III-18]
167 nM,128 nM,154 nM,> 10000 nM,15 nM,COc1ccc2cc(C#Cc3ccc(-c4ccc(S(=O)(=O)N[C@@H](C(=O)O)C(C)C)cc4)cc3)ccc2c1 [III-20]
> 5000 nM,2200 nM,> 5000 nM,> 5000 nM,15.7 nM,COc1ccc2cc(C#Cc3ccc(-c4ccc(S(=O)(=O)N[C@H](Cc5ccccc5)C(=O)O)cc4)cc3)ccc2c1 [III-28]
58.9 nM,36.8 nM,33.3 nM,> 10000 nM,2.71 nM,COc1ccc2cc(C#Cc3ccc(-c4ccc(S(=O)(=O)N[C@H](CCC(=O)O)C(=O)O)cc4)cc3)ccc2c1 [III-27]
374 nM,29.7 nM,25.9 nM,> 10000 nM,2.86 nM,CSCC[C@H](NS(=O)(=O)c1ccc(-c2ccc(C#Cc3ccc4ccccc4c3)cc2)cc1)C(=O)O [III-10]
> 4000 nM,58.3 nM,36.9 nM,> 10000 nM,5.73 nM,COc1ccc2cc(C#Cc3ccc(-c4ccc(S(=O)(=O)N[C@H](C(=O)O)C(C)C)cc4)cc3)ccc2c1 [III-21]
> 10000 nM,536 nM,508 nM,> 10000 nM,128 nM,COc1ccc2cc(C#Cc3ccc(-c4ccc(S(=O)(=O)N[C@@H](C(=O)O)c5ccc(O)cc5)cc4)cc3)ccc2c1 [III-51]
> 10000 nM,901 nM,4460 nM,> 10000 nM,20.1 nM,COc1ccc2cc(C#Cc3ccc(-c4ccc(S(=O)(=O)N[C@@H](Cc5c[nH]c6ccccc56)C(=O)O)cc4)cc3)ccc2c1 [III-31]
499 nM,363 nM,261 nM,> 10000 nM,15.1 nM,CC(C)C[C@@H](NS(=O)(=O)c1ccc(-c2ccc(C#Cc3ccc4ccccc4c3)cc2)cc1)C(=O)O [III-6]
